The values that follow come from patent US8674095B2, “Compounds for treating neuropsychiatric conditions” (Afraxis Holdings, Inc., priority 2008, dated 2014).

Holding throughout (type): biochemical
The target in one test is PAK1 (Homo sapiens, UniProt Q13153). Briefly: Z'Lyte fluorescence-based (FRET) kinase assay, PAK1. The following applies: 50 μM ATP (Km apparent), 1 hr room temperature, 1% DMSO. On the procedure: (§1) A fluorescence-based assay format is used to determine IC50 values of test compounds in vitro. Purified PAK kinase is incubated with ATP, and a test compound at various concentrations and a substrate peptide containing two fluorophores. In a second step, the reaction mix is incubated with a site-specific protease that cleaves non-phosphorylated but not phosphorylated substrate peptide, disrupting the FRET signal generated by the two fluorophores in the cleaved peptide (Z′Lyte™ Kinase assay platform; Life Technologies).
(§2) Reagents: 50 mM HEPES, pH 7.5; 0.01% BRIJ-35; 10 mM MgCl2; 1 mM EGTA, 2 uM substrate peptide Ser/Thr20 (proprietary Life Technologies Sequence), PAK enzyme [2.42-30.8 ng for PAK1, 0.29-6 ng for PAK2, 1.5-20 ng for PAK3 and 0.1-0.86 ng for PAK4; actual enzyme amounts depend on lot activity of the enzyme preparation]
(§3) Test compounds are dissolved in DMSO at various concentrations; the final DMSO concentration in the assay reaction is 1%.
(§4) ATP concentration at Km apparent is used in the assay [50 μM ATP for PAK1 assay, 75 μM ATP for PAK2 assay, 100 μM ATP for PAK3 assay, 5 μM ATP for PAK-4 assay] in a total assay volume of […] Assay reactions are incubated at room temperature for 1 hr. Following the kinase reaction, 5 μl of 1:256 dilution of development solution A (Life Technologies) is added and the reaction mix is incubated for an additional 1 hr at room temperature.
(§5) Plates are analyzed in a standard fluorescence plate reader (Tecan or equivalent) using an excitation wavelength of 400 nm and emission wavelengths of 445 nm and 520 nm. Inhibition of kinase reaction is determined by emission ratio=emission@445 nm/emission@520 nm

In another test the target is PAK2 (Homo sapiens, UniProt Q13177). Description: Z'Lyte fluorescence-based (FRET) kinase assay, PAK2. The note with it: 75 μM ATP (Km apparent), 1 hr room temperature, 1% DMSO. How it is done: as §1, §2, §3, §4, §5
A further test deals with PAK3 (Homo sapiens, UniProt O75914). Description: Z'Lyte fluorescence-based (FRET) kinase assay, PAK3. The following applies: 100 μM ATP (Km apparent), 1 hr room temperature, 1% DMSO. On the procedure: as §1, §2, §3, §4, §5
In a further test the target is PAK4 (Homo sapiens, UniProt O96013). Briefly: Z'Lyte fluorescence-based (FRET) kinase assay, PAK4. The following applies: 5 μM ATP (Km apparent), 1 hr room temperature, 1% DMSO. How it is done: as §1, §2, §3, §4, §5
Another test relates to PAK1, PAK2, PAK3, PAK-4. Briefly: PAK isoform inhibition profile of example compounds. The following applies: classification of example compounds in the description; underlying IC50 data in Table 8.
Excerpt: In some embodiments, the PAK inhibitor is a Group I PAK inhibitor that inhibits, for example, one or more Group I PAK polypeptides, for example, PAK1, PAK2, and/or PAK3. […] In some embodiments, the PAK inhibitor is a PAK2 inhibitor. In some embodiments, the PAK inhibitor is a PAK3 inhibitor. In some embodiments, the PAK inhibitor is a mixed PAK1/PAK3 inhibitor. […] In some embodiments, the PAK inhibitor is a Group II PAK inhibitor that inhibits one or more Group II PAK polypeptides, for example PAK-4, PAK5, and/or PAK6. In some embodiments, the PAK inhibitor is a PAK4 inhibitor. In some embodiments, the PAK inhibitor is a PAK5 inhibitor. In some embodiments, the PAK inhibitor is a PAK6 inhibitor.
as §1, §2, §3, §4, §5

Structures are written as SMILES.

PAK1, sequence (Q13153 whole entry): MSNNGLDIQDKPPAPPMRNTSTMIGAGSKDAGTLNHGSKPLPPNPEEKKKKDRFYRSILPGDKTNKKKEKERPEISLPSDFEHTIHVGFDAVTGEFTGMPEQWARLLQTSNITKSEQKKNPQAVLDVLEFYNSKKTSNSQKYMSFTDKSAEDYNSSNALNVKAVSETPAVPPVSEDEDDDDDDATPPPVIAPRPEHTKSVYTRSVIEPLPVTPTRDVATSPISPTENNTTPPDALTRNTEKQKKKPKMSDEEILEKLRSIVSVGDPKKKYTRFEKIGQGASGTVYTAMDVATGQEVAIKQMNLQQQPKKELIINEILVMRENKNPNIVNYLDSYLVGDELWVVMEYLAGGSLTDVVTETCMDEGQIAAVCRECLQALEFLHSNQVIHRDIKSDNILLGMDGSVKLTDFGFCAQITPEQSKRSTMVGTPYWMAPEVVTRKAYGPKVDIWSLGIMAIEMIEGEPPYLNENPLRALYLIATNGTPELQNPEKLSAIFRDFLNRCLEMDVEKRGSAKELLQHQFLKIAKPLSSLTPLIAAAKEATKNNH
PAK3, sequence (O75914 whole entry): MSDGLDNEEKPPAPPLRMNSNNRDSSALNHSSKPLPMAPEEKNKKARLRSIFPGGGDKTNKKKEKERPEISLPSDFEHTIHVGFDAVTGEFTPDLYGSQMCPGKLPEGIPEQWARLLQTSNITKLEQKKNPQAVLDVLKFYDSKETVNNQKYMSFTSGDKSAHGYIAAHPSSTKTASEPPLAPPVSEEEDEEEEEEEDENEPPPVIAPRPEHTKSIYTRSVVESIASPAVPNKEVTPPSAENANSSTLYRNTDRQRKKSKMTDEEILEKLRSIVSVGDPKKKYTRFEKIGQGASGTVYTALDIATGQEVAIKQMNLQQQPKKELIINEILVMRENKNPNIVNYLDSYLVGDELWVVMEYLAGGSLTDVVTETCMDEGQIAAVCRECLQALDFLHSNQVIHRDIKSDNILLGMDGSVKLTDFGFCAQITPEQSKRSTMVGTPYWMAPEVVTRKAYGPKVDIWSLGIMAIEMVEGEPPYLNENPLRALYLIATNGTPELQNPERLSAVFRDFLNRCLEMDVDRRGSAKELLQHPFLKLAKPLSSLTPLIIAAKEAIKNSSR
PAK2, sequence (Q13177 whole entry): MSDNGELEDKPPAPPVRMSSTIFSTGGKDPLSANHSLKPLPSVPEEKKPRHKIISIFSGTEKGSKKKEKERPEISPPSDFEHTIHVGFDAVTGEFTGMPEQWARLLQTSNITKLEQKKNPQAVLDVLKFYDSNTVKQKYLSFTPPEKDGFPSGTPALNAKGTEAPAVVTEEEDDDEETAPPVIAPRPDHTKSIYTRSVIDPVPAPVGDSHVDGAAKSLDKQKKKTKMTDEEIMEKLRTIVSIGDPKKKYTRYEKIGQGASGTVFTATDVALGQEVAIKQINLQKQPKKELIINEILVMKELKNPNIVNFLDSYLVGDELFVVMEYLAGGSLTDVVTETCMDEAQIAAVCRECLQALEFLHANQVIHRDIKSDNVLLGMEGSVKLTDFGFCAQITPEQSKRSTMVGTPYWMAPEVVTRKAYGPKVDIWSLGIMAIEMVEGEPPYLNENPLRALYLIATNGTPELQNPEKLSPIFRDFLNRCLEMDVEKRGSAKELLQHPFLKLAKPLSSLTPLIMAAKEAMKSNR
PAK4, sequence (O96013 whole entry, canonical isoform): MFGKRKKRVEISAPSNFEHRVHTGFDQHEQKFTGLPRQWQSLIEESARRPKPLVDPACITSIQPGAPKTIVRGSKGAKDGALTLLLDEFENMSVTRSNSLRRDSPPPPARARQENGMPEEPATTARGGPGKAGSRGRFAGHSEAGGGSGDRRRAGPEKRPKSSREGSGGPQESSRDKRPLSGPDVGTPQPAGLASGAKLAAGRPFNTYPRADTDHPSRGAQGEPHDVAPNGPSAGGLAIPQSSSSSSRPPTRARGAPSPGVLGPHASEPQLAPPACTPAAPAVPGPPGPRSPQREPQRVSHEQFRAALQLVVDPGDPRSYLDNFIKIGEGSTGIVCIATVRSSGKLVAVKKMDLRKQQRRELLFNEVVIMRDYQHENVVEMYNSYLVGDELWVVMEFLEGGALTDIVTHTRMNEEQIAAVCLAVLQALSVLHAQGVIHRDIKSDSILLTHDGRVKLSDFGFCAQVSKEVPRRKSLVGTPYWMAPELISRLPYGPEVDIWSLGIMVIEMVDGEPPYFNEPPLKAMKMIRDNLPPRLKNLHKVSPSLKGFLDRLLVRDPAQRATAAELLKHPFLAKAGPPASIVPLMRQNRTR

Turning to `CN1CCN(c2ccc(Nc3ncc4ccc(=O)n(Cc5ccccc5Br)c4n3)cc2)CC1` [Compound 27, 8-(2-bromobenzyl)-2-(4-(4-methylpiperazin-1-yl)phenylamino)pyrido[2,3-d]pyrimidin-7(8H)-one], the IC50 on PAK1, on PAK2, at PAK3 and at PAK4 was under 1000 nM each time. Besides, the “PAK inhibitor type (isoform profile)” value in the test on PAK1, PAK2, PAK3, PAK-4 is “mixed PAK1/PAK2/PAK3/PAK-4 inhibitor”.
`COc1cc(Nc2nccc(-c3ccc(NCCN)nc3)n2)cc(OC)c1OC` [Compound 95]: the IC50 (usually the concentration that gives 50% inhibition) was under 1000 nM on PAK1, 1000 to 10000 nM at PAK2, 1000 to 10000 nM at PAK3 and under 1000 nM at PAK4.
Take `Cc1cccc(Cl)c1Cn1c(=O)ccc2cnc(Nc3ccc(N4CCN(C)CC4)cc3)nc21` [Compound 67]: the IC50 on PAK1 is under 1000 nM; at PAK2, 1000 to 10000 nM; at PAK3 it was 1000 to 10000 nM; at PAK4 it was under 1000 nM.
With `CN1CCN(c2ccc(Nc3ncc4ccc(=O)n(Cc5ccccc5N5CCOCC5)c4n3)cc2)CC1` [Compound 73], the IC50 at PAK1, at PAK2, at PAK3 and at PAK4 was under 1000 nM each time. For the same molecule, in the test on PAK1, PAK2, PAK3, PAK-4, the “PAK inhibitor type (isoform profile)” value is recorded as “mixed PAK1/PAK2/PAK3/PAK-4 inhibitor”.
As to `Cc1noc(-c2ccccc2Cn2c(=O)ccc3cnc(Nc4ccc(N5CCN(C)CC5)cc4)nc32)n1` [Compound 75], the IC50 on PAK1 is under 1000 nM; on PAK2, 1000 to 10000 nM; on PAK3 it was 1000 to 10000 nM; on PAK4, 1000 to 10000 nM. Also, in the test with PAK1, PAK2, PAK3, PAK-4, the “PAK inhibitor type (isoform profile)” value is reported as “PAK1 inhibitor”.
Take `CCNc1ccc(-c2ccnc(Nc3ccc(N4CCN(C)CC4)cc3)n2)cn1` [Compound 109]: the IC50 on PAK1 is 1000 to 10000 nM; at PAK2, over 10000 nM; at PAK3, over 10000 nM; on PAK4 it was under 1000 nM.
On to `CN1CCN(c2ccc(Nc3ncc4ccc(=O)n(CCc5ccccc5C(F)(F)F)c4n3)cc2)CC1` [Compound 66], for which the IC50 is under 1000 nM at PAK1, under 1000 nM at PAK2, 1000 to 10000 nM at PAK3 and under 1000 nM on PAK4. In addition, the “PAK inhibitor type (isoform profile)” value in the test on PAK1, PAK2, PAK3, PAK-4 is “mixed PAK1/PAK2/PAK-4 inhibitor”.
Turning to `CN1CCN(c2ccc(Nc3ncc4ccc(=O)n(Cc5c(Cl)cccc5Br)c4n3)cc2)CC1` [Compound 71], the IC50 at PAK1, at PAK2, at PAK3 and on PAK4 was under 1000 nM throughout. Further, in the test on PAK1, PAK2, PAK3, PAK-4, the “PAK inhibitor type (isoform profile)” value is “mixed PAK1/PAK2/PAK3/PAK-4 inhibitor”.
Consider `Cc1c(F)cccc1Cn1c(=O)ccc2cnc(Nc3ccc(N4CCN(C)CC4)cc3)nc21` [Compound 49], for which the IC50 on PAK1 is under 1000 nM; at PAK2 it was 1000 to 10000 nM; at PAK3 it was over 10000 nM; at PAK4 it was 1000 to 10000 nM. In addition, the “PAK inhibitor type (isoform profile)” value in the test with PAK1, PAK2, PAK3, PAK-4 is recorded as “PAK1 inhibitor”.
Consider `CN1CCN(c2ccc(Nc3ncc4cc(-c5ccccc5)c(=O)n(Cc5ccccc5C(F)(F)F)c4n3)cc2)CC1` [Compound 119], for which the IC50 was under 1000 nM at PAK1, under 1000 nM on PAK2, under 1000 nM on PAK3 and over 10000 nM on PAK4. For the same molecule, the “PAK inhibitor type (isoform profile)” value in the test with PAK1, PAK2, PAK3, PAK-4 was “inhibits all three Group I PAK isoforms (PAK1, 2 and PAK3) with equal or similar potency”.
With `Cc1noc(-c2ccccc2Cn2c(=O)ccc3cnc(Nc4ccc(N5CCNCC5)c(F)c4)nc32)n1` [Compound 80], the IC50 at PAK1 was under 1000 nM; at PAK2, 1000 to 10000 nM; at PAK3, 1000 to 10000 nM; at PAK4, 1000 to 10000 nM. The “PAK inhibitor type (isoform profile)” value in the test on PAK1, PAK2, PAK3, PAK-4 is “PAK1 inhibitor”.
Take `CN1CCN(c2ccc(Nc3nccc(-c4ccc(N(C)CCN)nc4)n3)cc2)CC1` [Compound 110]: the IC50 on PAK1 was 1000 to 10000 nM; on PAK2, 1000 to 10000 nM; at PAK3, over 10000 nM; at PAK4 it was 1000 to 10000 nM.
`Cc1ccc(F)cc1Cn1c(=O)ccc2cnc(Nc3ccc(N4CCN(C)CC4)cc3)nc21` [Compound 59]: the IC50 was under 1000 nM on PAK1, 1000 to 10000 nM on PAK2, 1000 to 10000 nM on PAK3 and under 1000 nM at PAK4. For the same molecule, the “PAK inhibitor type (isoform profile)” value in the test with PAK1, PAK2, PAK3, PAK-4 is listed as “mixed PAK1/PAK-4 inhibitor”.
Take `Cc1cccc(F)c1Cn1c(=O)ccc2cnc(Nc3ccc(N4CCN(C)CC4)cc3)nc21` [Compound 65]: the IC50 at PAK1, on PAK2, on PAK3 and at PAK4 was under 1000 nM each time. The “PAK inhibitor type (isoform profile)” value with PAK1, PAK2, PAK3, PAK-4 was “mixed PAK1/PAK2/PAK3/PAK-4 inhibitor”.
Consider `CN1CCN(c2ccc(Nc3ncc4ccc(=O)n(Cc5ccccc5-c5cc(C(F)(F)F)nn5C)c4n3)cc2)CC1` [Compound 76], for which the IC50 at PAK1 is 1000 to 10000 nM; at PAK2, 1000 to 10000 nM; on PAK3, 1000 to 10000 nM; on PAK4, over 10000 nM.
As to `CN1CCN(c2ccc(Nc3ncc4ccc(=O)n(Cc5c(Cl)cccc5-c5ccccc5)c4n3)cc2)CC1` [Compound 82], the IC50 at PAK1 is 1000 to 10000 nM; at PAK2 it was over 10000 nM; on PAK3, over 10000 nM; on PAK4, 1000 to 10000 nM.
On to `Cc1cc(Nc2nccc(-c3ccc(NCCN4CCCCC4)nc3)n2)ccc1N1CCN(C)CC1` [Compound 107], for which the IC50 is 1000 to 10000 nM at PAK1, 1000 to 10000 nM on PAK2, over 10000 nM on PAK3 and under 1000 nM at PAK4.
On to `CN1CCN(c2ccc(Nc3nccc(-c4ccc(N)nc4)n3)cc2)CC1` [Compound 108], for which the IC50 was 1000 to 10000 nM at PAK1, 1000 to 10000 nM at PAK2, over 10000 nM at PAK3 and 1000 to 10000 nM on PAK4.
As for `CC(C)CNc1ccc(-c2ccnc(Nc3ccc(N4CCN(C)CC4)cc3)n2)cn1` [Compound 104], the IC50 was 1000 to 10000 nM on PAK1, 1000 to 10000 nM on PAK2, over 10000 nM at PAK3 and under 1000 nM at PAK4.
As for `CN1CCN(c2cccc(Nc3nccc(-c4ccc(NCCN)nc4)n3)c2)CC1` [Compound 112], the 50% inhibitory concentration (IC50) is 1000 to 10000 nM at PAK1, 1000 to 10000 nM at PAK2, over 10000 nM on PAK3 and under 1000 nM at PAK4.
As for `CC(c1ccccc1C(F)(F)F)n1c(=O)ccc2cnc(Nc3ccc(N4CCN(C)CC4)cc3)nc21` (stereo not drawn) [Compound 70], the IC50 on PAK1 is 1000 to 10000 nM; at PAK2, over 10000 nM; at PAK3 it was over 10000 nM; on PAK4 it was 1000 to 10000 nM.
As to `CN1CCN(c2ccc(Nc3nccc(-c4ccc(NCCN5CCCCC5)nc4)n3)cc2)CC1` [Compound 100], the IC50 was 1000 to 10000 nM on PAK1, 1000 to 10000 nM at PAK2, over 10000 nM at PAK3 and under 1000 nM at PAK4.
`COc1cccc2c1C(n1c(=O)ccc3cnc(Nc4ccc(N5CCN(C)CC5)cc4)nc31)CC2` (stereo not drawn) [Compound 1, 8-(7-methoxy-2,3-dihydro-1H-inden-1-yl)-2-(4-(4-methylpiperazin-1-yl)phenylamino)pyrido[2,3-d]pyrimidin-7(8H)-one]: the IC50 at PAK1 was 1000 to 10000 nM; at PAK2, over 10000 nM; on PAK3 it was over 10000 nM; at PAK4, 1000 to 10000 nM.
In the case of `CN1CCN(c2ccc(Nc3nccc(-c4ccc(NCCCN)nc4)n3)cc2)CC1` [Compound 98], the values for the IC50 at PAK1, at PAK2 and at PAK4 were under 1000 nM, 1000 to 10000 nM and 1000 to 10000 nM, respectively. Also, in the test on PAK1, PAK2, PAK3, PAK-4, the “PAK inhibitor type (isoform profile)” value is “PAK1 inhibitor”.
Regarding `CC(=O)N1CCN(c2ccc(Nc3nccc(-c4ccc(NCCN)nc4)n3)cc2)CC1` [Compound 115], the IC50 is over 10000 nM on PAK1, over 10000 nM on PAK2, over 10000 nM on PAK3 and under 1000 nM at PAK4.
As to `CN1CCN(c2ccc(Nc3ncc4ccc(=O)n(Cc5c(Cl)cccc5-c5cccs5)c4n3)cc2)CC1` [Compound 83], the IC50 on PAK1 was 1000 to 10000 nM; on PAK2 it was over 10000 nM; at PAK3, over 10000 nM; at PAK4, over 10000 nM.
